Patent publication US5693844A, “2-cyano-3-hydroxy-propenamides” (Roussel UCLAF, priority 1995, dated 1997)
Like-named read-outs stand apart in the source and are kept apart here.

Target: T1, human DHO-DH (Homo sapiens, UniProt Q02127)
T1 construct: The spleen tissue was chopped and then homogenized with a teflon glass homogenizer; from tissue; host or cells: human spleen, crude membrane preparation
Assay: Dihydroorotate Dehydrogenase (DHO-DH) Assay: DCIP-linked inhibition of human spleen membrane DHO-DH
Assay type: biochemical
Conditions: human spleen membranes, 90 min preincubation at 37° C., pH 8.0, 500 μM dihydroorotate, 100 μM coenzyme Q10, 200 μM DCIP, loss of absorbance at 650 nm
From the text: Human spleen membrane DHO-DH catalyzed conversion of dihydroorotate to orotate is accompanied by reduction of coenzyme Q10. Reoxidation of coenzyme Q10 is linked to reduction of dichlorophenolindophenol and is monitored as a loss of absorbance at 650 nm. The rate of loss in absorbance is a direct measurement of the rate of the DHO-DH enzyme catalyzed reaction.
Crude membrane preparations were made using a modification of a published differential centrifugation procedure. All procedures were carried out on ice or at a temperature of 4° C. using pre-cooled buffers and equipment.
The spleen tissue was chopped and then homogenized with a teflon glass homogenizer (about 10 passes at 250 rpm) in 10 volumes of a homogenization buffer (10 mM Tris-HCl containing 0.25M sucrose, 10 μg/ml soybean trypsin inhibitor, 2 μg/ml aprotinin, pepstatin A and leupeptin pH 7.4). The homogenate was centrifuged at ^~ 470 g for 10 minutes and the supernatant was saved. Pellets were resuspended in 4-6 volumes of homogenization buffer using 5 passes of the teflon glass homogenizer (250 rpm) and centrifuged for 10 minutes at ^~ 470 g. The supernatant was combined with that from the first centrifugation step (post nuclear fraction) and the pellets containing nuclei and tissue debris were discarded. The post nuclear supernatant was centrifuged at 125,000 g for 40 minutes. The pellets were resuspended in homogenization buffer (2 ml/g wet tissue) using about 10 passes of the teflon glass homogenizer. Aliquots of the preparation were stored at -80° C.
Membranes (0.33-0.5 mg protein) were incubated with 100 μM coenzyme Q10 in 50 mM Tris-HCl, 0.1% Triton X-100, 1 mM KCN pH 8.0. Following a 90 minute preincubation at 37° C., the reaction was initiated by addition of 500 μM of dihydroorotate and the reduction of DCIP (200 μM) was monitored by loss of absorbance at 650 nm using a 96-well plate reader at 37° C. Drug concentrations increased in half log unit or full log unit intervals with each concentration tested at least in triplicate.

T1 sequence (Q02127 whole entry): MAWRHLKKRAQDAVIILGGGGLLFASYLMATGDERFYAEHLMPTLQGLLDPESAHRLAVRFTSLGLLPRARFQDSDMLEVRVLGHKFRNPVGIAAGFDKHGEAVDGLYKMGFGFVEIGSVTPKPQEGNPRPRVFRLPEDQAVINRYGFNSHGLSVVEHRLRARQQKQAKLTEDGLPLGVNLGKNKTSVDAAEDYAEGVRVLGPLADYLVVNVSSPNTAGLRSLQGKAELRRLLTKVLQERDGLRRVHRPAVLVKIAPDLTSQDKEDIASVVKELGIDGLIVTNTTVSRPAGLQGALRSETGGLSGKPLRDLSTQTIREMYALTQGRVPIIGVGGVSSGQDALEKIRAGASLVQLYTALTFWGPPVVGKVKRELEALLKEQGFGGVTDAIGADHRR

SMILES | IC50 | IC50 (read-out: IC50)
CC=CC(=O)C(C#N)C(=O)Nc1ccc(C(F)(F)F)cc1 (stereo not shown) [C] | 0.0794 µM | –
C#CC(=O)C(C#N)C(=O)Nc1ccc(C(F)(F)F)cc1 (stereo not shown) [B] | – | > 0.1 µM
N#CC(C(=O)Nc1ccc([S+]([O-])C(F)(F)F)cc1)=C(O)C1CC1 (stereo not shown) [Example 2, N-(4'-trifluoromethylsulfinyl-phenyl)-2-cyano-3-cyclopropyl-3-hydroxy-prop-2-enamide] | – | 0.3 µM
N#Cc1ccc(NC(=O)C(C#N)C(=O)C2CC2)cc1 (stereo not shown) [A] | – | 1.95 to 2.1 µM
